A short description of series [1]: Stability evaluation in rat plasma (UPLC-MS/MS method validation). The following applies: n = 6. Format: in vitro ADME. The source says: The test method was extensively verified regarding precision, accuracy, and stability, according to the EMA (European Medicines Agency) 2011 and FDA (Food and Drug Administration) 2018 criteria. In six replicates, quality control (QC) samples were generated at low, medium, and high concentrations and were utilized to validate the procedure. This method was designed to conform to EMA and FDA regulatory requirements for bioanalytical methods.

Details of series [2]: method as in Ma et al., 2017. The note with it: following the initial dose of 80–400 mg pyrotinib; ref Ma et al., 2017; cited from earlier work.

The structures appear in SMILES notation.

`CCOc1cc2ncc(C#N)c(Nc3ccc(OCc4ccccn4)c(Cl)c3)c2cc1NC(=O)/C=C/[C@H]1CCCN1C` [pyrotinib, Pyrotinib]: the “Stability in rat plasma, RE” value in series [1] (4°C, 24 h, high concentration (pyrotinib 4500, pyrotinib M1 0.75 μM)) was determined as 101.04%; in series [1] (4°C, 24 h, low concentration (pyrotinib 15, pyrotinib M1 0.015 μM)), 102.40%; in series [1] (4°C, 24 h, medium concentration (pyrotinib 150, pyrotinib M1 0.15 μM)) it was 107.05%; in series [1] (Room temperature, 6 h, high concentration (pyrotinib 4500, pyrotinib M1 0.75 μM)), 103.56%; in series [1] (Room temperature, 6 h, low concentration (pyrotinib 15, pyrotinib M1 0.015 μM)), 105.41%; in series [1] (Room temperature, 6 h, medium concentration (pyrotinib 150, pyrotinib M1 0.15 μM)) it was 106.18%. The “Stability in rat plasma, RE” value in series [1] (−80°C, 7 days, high concentration (pyrotinib 4500, pyrotinib M1 0.75 μM)) came out at 100.79%; in series [1] (−80°C, 7 days, low concentration (pyrotinib 15, pyrotinib M1 0.015 μM)), 98.95%; in series [1] (−80°C, 7 days, medium concentration (pyrotinib 150, pyrotinib M1 0.15 μM)), 108.01%. In series [2], the “mean terminal half-life (t1/2)” value is 11.4 to 15.9 h. Also, the “time required to attain maximum plasma concentration (Tmax)” value in series [2] was 3 to 5 h.
